Assay results published in patent publication US20180296630A1, “METHODS AND COMPOSITIONS FOR PREVENTING OR TREATING OPHTHALMIC CONDITIONS” (Stealth BioTherapeutics Corp, priority 2012, published 2018).

Key:
[1] = Ocular pharmacokinetics and disposition of total radioactivity after topical instillation or subcutaneous dosing; assay type: in vivo, New Zealand White rabbits; conditions: for AUC0-24 h / AUCinf / T1/2 / Tmax: topical instillation 1% solution, 40 μL/eye, total radioactivity; for time post-dosing at which equivalent drug concentration reached a maximum / equivalent drug content at peak concentration, of the total dose administered to the eye: topical instillation
Description: Sixteen New Zealand White rabbits were dosed with a formulation consisting of 10 mg/mL of ^14C-labeled D-Arg-2′,6′-Dmt-Lys-Phe-NH2. Animals were at least twelve weeks old and weighed 2.30-3.43 kg at the time of dosing. Animals were randomized to treatment groups according to Table 7.
Dosing solutions were prepared by combining 14.70 mg (correction factor of 0.782) of non-radiolabeled D-Arg-2′,6′-Dmt-Lys-Phe-NH2, and 17.49 mg (correction factor of 0.770) of ^14C-labeled D-Arg-2′,6′-Dmt-Lys-Phe-NH2, and dissolving in 2.5 mL of 0.01M PBS, pH 7.4 to achieve a concentration of 9.97 mg/mL (1%, free peptide) and a radiolabeled concentration of […]. Three aliquots (100 μL) of dosing solution were brought to a volume of 25 mL with saline. Duplicate 100 μL aliquots of the diluted solutions were quantified for radioactivity by liquid scintillation counting (LSC). […] The dosing solutions were stored at 2-8° C. for up to 24 hours prior to use, or at −70° C. for future use.
On Day 1, 40 μL of the 1% (10 mg/mL) D-Arg-2′,6′-Dmt-Lys-Phe-NH2 dosing solution was topically instilled into both eyes of each animal in Groups A-G. Each animal in Groups H-I received a single subcutaneous dose of 0.1 mL/kg (1 mg/kg) of the dosing solution into the dorsal scapular region. At the designated time, each animal was anesthetized and blood was collected via cardiac puncture. Animals were euthanized following cardiac puncture. Approximately 3±0.5 mL of whole blood was collected in a K2EDTA tube. Four aliquots (100 μL) were directly transformed to combustion cones. Blood aliquots were stored at ≤−20° C. until analyzed.
For Groups A-G, the right globe and one left globe from each group (N=3 globes) were collected and necropsied. The remaining left eye (except for Group G) was collected for possible 3D-QWBA (Quantitative whole body autoradiography) analysis and the conjunctiva remained intact to the eyes. For Groups H-I, both globes were collected from each animal and necropsied. All eyes designated for necropsy were rinsed with normal saline and aqueous humor samples were collected. The globes were enucleated and frozen in liquid nitrogen and stored at ≤−80° C. prior to dissection. The vitreous humor, cornea, conjunctiva, iris/ciliary body, lens, retina, choroid, and sclera were collected from the appropriate eye, weighed, and stored at ≤−20° C. prior to analysis. Aqueous humor samples were also stored at ≤−20° C. until analyzed.
All radioactivity measurements were performed using a Beckman Liquid Scintillation Spectrometer. Two blood aliquots were combusted and two aliquots were reserved for combustion if needed. From each eye, the cornea, conjunctiva, iris/ciliary body, lens, retina, choroid, and sclera from each eye were weighed into combustion cones and combusted. Duplicate aliquots of each aqueous humor sample and each vitreous humor sample were transferred to scintillation vials using Insta-Gel as the scintillation fluid, and the amount of radioactivity was determined.

[2] = test system: STZ and HFD/STZ diabetic rats; test: Lens epithelium changes in diabetic SD rats; assay type: in vivo, Sprague-Dawley rat; conditions: STZ rat model and HFD/STZ rat model
Description: (§1) A rat model of diabetes was established by combination of 6-week HFD and low dose of STZ (30 mg/kg) injection or a single high dose of STZ (65 mg/kg) in SD rats. See generally, K. Srinivasan, B. Viswanad, Lydia Asrat, C. L. Kaul and P. Ramarao, Combination of high-fat diet-fed and low-dose streptozotocin-treated rat: A model for type 2 diabetes and pharmacological screening, Pharmacological Research, 52(4): 313-320, 2005. Rats of the same batch fed with normal chow (NRC) were used as a control.
The effect of the aromatic cationic peptides on lens epithelium in the SD rat model was investigated. Administration of D-Arg-2′,6′-Dmt-Lys-Phe-NH2 reduced epithelial cellular changes in both STZ rat model (FIG. 8) and HFD/STZ rat model (FIG. 9).

[3] = test system: STZ and HFD/STZ diabetic rats; test: Inner blood-retinal barrier function (Evans blue extravasation) in diabetic SD rats; assay type: in vivo, Sprague-Dawley rat; conditions: compared to rats on a HFD not administered peptide
Description: FIGS. 10A and 10B are charts showing the integrity of the blood-retinal barrier of normal rats (NRC), diabetic rats, and diabetic rats treated with Phe-D-Arg-Phe-Lys-NH2 (SS-20) or D-Arg-2′,6′-Dmt-Lys-Phe-NH2(SS-31), as analyzed by Evans blue extravasation. (A) diabetes induced by STZ; (B) diabetes induced by HFD/STZ.
as §1
The effect of the aromatic-cationic peptides on the inner blood-retinal barrier function in the SD rat model was investigated.

D-Arg-2′,6′-Dmt-Lys-Phe-NH2
AUC0-24 h ([1]; aqueous humor): 2600 hr*ng-equi/g | AUCinf ([1]; aqueous humor): 2680 hr*ng-equi/g | T1/2 ([1]; aqueous humor): 4.60 h | Tmax ([1]; aqueous humor): 4.0 h | radioactivity concentration ([1]; blood, 1 hour after subcutaneous dosing (1 mg/kg)): 356 ng-equi/g | radioactivity concentration ([1]; blood, 2 hours after subcutaneous dosing (1 mg/kg)): 87.9 ng-equi/g | AUC0-24 h ([1]; blood): 1210 hr*ng-equi/g | AUCinf ([1]; blood): 1250 hr*ng-equi/g | T1/2 ([1]; blood): 4.36 h | Tmax ([1]; blood): 2.0 h | time post-dosing at which equivalent drug concentration reached a maximum ([1]; choroid, lens and retina): 4 h | equivalent drug concentration ([1]; choroid, 1 hour after subcutaneous dosing (1 mg/kg)): 558±251 ng-equi/g | AUC0-24 h ([1]; choroid): 1900 hr*ng-equi/g | AUCinf ([1]; choroid): 2190 hr*ng-equi/g | T1/2 ([1]; choroid): 8.21 h | Tmax ([1]; choroid): 4.0 h | time post-dosing at which equivalent drug concentration reached a maximum ([1]; conjunctiva, cornea and sclera): 0.5 h | equivalent drug concentration ([1]; conjunctiva, 1 hour after subcutaneous dosing (1 mg/kg)): 650±12 ng-equi/g | equivalent drug content at peak concentration, of the total dose administered to the eye ([1]; conjunctiva): 0.293±0.198% | AUC0-24 h ([1]; conjunctiva): 41,400 hr*ng-equi/g | AUCinf ([1]; conjunctiva): 56,000 hr*ng-equi/g | T1/2 ([1]; conjunctiva): 13.6 h | Tmax ([1]; conjunctiva): 0.5 h | equivalent drug concentration ([1]; cornea, 1 hour after subcutaneous dosing (1 mg/kg)): 209 ng-equi/g | equivalent drug content at peak concentration, of the total dose administered to the eye ([1]; cornea): 0.028±0.005% | AUC0-24 h ([1]; cornea): 14,000 hr*ng-equi/g | Tmax ([1]; cornea): 0.5 h | equivalent drug concentration ([1]; iris/ciliary body, 1 hour after subcutaneous dosing (1 mg/kg)): 513±2 ng-equi/g | AUC0-24 h ([1]; iris/ciliary body): 2750 hr*ng-equi/g | AUCinf ([1]; iris/ciliary body): 3279 hr*ng-equi/g | T1/2 ([1]; iris/ciliary body): 8.81 h | Tmax ([1]; iris/ciliary body): 4.0 h | AUC0-24 h ([1]; lens): 2720 hr*ng-equi/g | Tmax ([1]; lens): 4.0 h | equivalent drug concentration ([1]; retina, 1 hour after subcutaneous dosing (1 mg/kg)): 336±3 ng-equi/g | AUC0-24 h ([1]; retina): 1030 hr*ng-equi/g | AUCinf ([1]; retina): 1160 hr*ng-equi/g | T1/2 ([1]; retina): 7.01 h | Tmax ([1]; retina): 4.0 h | equivalent drug concentration ([1]; sclera, 1 hour after subcutaneous dosing (1 mg/kg)): 530±47 ng-equi/g | equivalent drug content at peak concentration, of the total dose administered to the eye ([1]; sclera): 0.051±0.035% | AUC0-24 h ([1]; sclera): 5780 hr*ng-equi/g | AUCinf ([1]; sclera): 8910 hr*ng-equi/g | T1/2 ([1]; sclera): 18.3 h | Tmax ([1]; sclera): 0.5 h | AUC0-24 h ([1]; vitreous humor): 221 hr*ng-equi/g | AUCinf ([1]; vitreous humor): 253 hr*ng-equi/g | T1/2 ([1]; vitreous humor): 7.50 h | Tmax ([1]; vitreous humor): 4.0 h | epithelial cellular changes of the lens epithelium [2]: reduced | inner blood-retinal barrier function [3]: improved
